Patent publication US8476449B2, “Radioactive iodine labeled organic compound or salt thereof” (Nihon Medi-Physics Co., Ltd., priority 2010, dated 2013)
Like-named read-outs stand apart in the source and are kept apart here.

How the values were obtained:
Aβ42 aggregate = biological target: T1, Aβ42 aggregate (Homo sapiens, UniProt P05067); assay: Evaluation experiment of binding to amyloid β (filter radioactivity); settings: Aβ42 aggregate 30 nmol/L, incubation 3 hours
T1 construct: Aβ (1-42) peptide; purchased Peptide Institute, Inc
Method: 0.5 mg of Aβ (1-42) peptide (purchased from Peptide Institute, Inc.) was dissolved in 2 mL of a PBS buffer containing 1 mmol/L of EDTA and incubated at 37° C. for 42 hours, thus preparing an Aβ42 aggregate. A glass tube was charged with a 10 vol % ethanol aqueous solution (900 μL), Aβ42 aggregate (50 μL, final concentration 30 nmol/L), and radioactive iodine-labeled compound 1, radioactive iodine-labeled compound 2, or radioactive iodine-labeled compound 3 (each 50 μL, 0.018-0.097 μCi), and incubation was carried out for 3 hours. B/F separation was carried out using a cell harvester (Brandel, M-24), and the radioactivity on the filter was measured in a γ counter. The proportion (%) of the radioactivity count on the filter relative to the radioactivity count of each sample used was determined, and binding of each compound to the Aβ42 aggregate was evaluated.
As a control, 4-dimethylamino-4′-iodochalcone (hereinafter, called a chalcone derivative) was prepared in accordance with a method described in the literature (Ono et al., Bioorg Med Chem, 15, 6802-6809, 2007), and the same experiment was carried out (radioactivity count in sample: […]-0.37 kBq (0.023-0.01 μCi)).

[1] = mice
Method: Mice were decapitated after 2, 10, 30, and 60 minutes, and then each organ was then removed after blood collection, and radiation counts were measured in a γ counter.

tau protein aggregate = tau protein aggregate (Homo sapiens, UniProt P10636); settings: tau 0.37 μmol/L, incubated 1 to 1.5 hours, PD-10 column
Method: Mixed solutions of a tau protein aggregate (final concentration 0.37 μmol/L, prepared in Example 9) or an non-aggregated tau protein (final concentration 0.37 μmol/L) and radioactive iodine-labeled compound 1 (2.0 kBq (0.055 μCi)), radioactive iodine-labeled compound 2 (20 kBq (0.55 μCi)) or radioactive iodine-labeled form 3 (2.0 kBq (0.055 μCi)) were incubated for 1 hour to 1.5 hours, and then subjected to size exclusion chromatography (PD-10 column (GE Healthcare Japan), eluent: phosphate buffered-saline (PBS)). Subsequently, the radioactivity of an eluted fraction of the tau protein aggregate or the non-aggregated tau protein was measured in a γ counter.

[2] = 2 minutes after tail vein administration
[3] = 10 minutes after tail vein administration
[4] = 30 minutes after tail vein administration
[5] = 60 minutes after tail vein administration

T1 sequence (P05067 672-713 limits assumed): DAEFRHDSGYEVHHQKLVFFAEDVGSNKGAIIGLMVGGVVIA
Sequence of tau protein aggregate (P10636 1-441 isoform P10636-8): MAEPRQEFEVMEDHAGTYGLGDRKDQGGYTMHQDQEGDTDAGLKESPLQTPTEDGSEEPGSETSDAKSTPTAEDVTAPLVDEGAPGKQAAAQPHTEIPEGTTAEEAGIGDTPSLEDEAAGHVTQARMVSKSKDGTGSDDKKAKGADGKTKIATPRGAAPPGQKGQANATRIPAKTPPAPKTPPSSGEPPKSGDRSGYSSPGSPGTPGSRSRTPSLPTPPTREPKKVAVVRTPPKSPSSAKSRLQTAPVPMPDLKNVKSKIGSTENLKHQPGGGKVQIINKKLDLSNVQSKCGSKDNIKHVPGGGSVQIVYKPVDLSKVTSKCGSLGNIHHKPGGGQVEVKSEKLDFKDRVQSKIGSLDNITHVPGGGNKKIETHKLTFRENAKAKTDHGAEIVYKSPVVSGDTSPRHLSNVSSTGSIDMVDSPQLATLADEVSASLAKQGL

Q: With `CCOC(=O)CN1C(=O)/C(=C/c2ccc(-c3cccc([125I])c3)o2)NC1=S` [Radioactive iodine-labeled compound 2, (Z)-Ethyl-2-(4-((5-(3-(^125I)iodophenyl)furan-2-yl)methylene)-5-oxo-2-thioxoimidazolidin-l-yl) acetate] as the compound, how does the “Binding to the Aβ42 aggregate (proportion of radioactivity count on the filter)” value (Aβ42 aggregate) read?
A: Its value is “significantly lower”.

Q: What about the “Amount of radioactivity in organ: Blood” value [1, 2] of the same compound?
A: The value was 9.49 ± 0.82 % ID/g.

Q: What about the “Amount of radioactivity in organ: Blood” value [1, 3] of the same compound?
A: The value was 2.38 ± 0.88 % ID/g.

Q: And the “Amount of radioactivity in organ: Blood” value [1, 4]?
A: The value was 1.79 ± 0.11 % ID/g.

Q: What about the “Amount of radioactivity in organ: Blood” value [1, 5] of the same compound?
A: Its value is 1.50 ± 0.10 % ID/g.

Q: And the “Amount of radioactivity in organ: Brain” value [1, 2]?
A: Its value is 0.57 ± 0.07 % ID/g.

Q: What about the “Amount of radioactivity in organ: Brain” value [1, 3] of the same compound?
A: The value was 0.32 ± 0.02 % ID/g.

Q: And the “Amount of radioactivity in organ: Brain” value [1, 4]?
A: Its value is 0.18 ± 0.02 % ID/g.

Q: And the “Amount of radioactivity in organ: Brain” value [1, 5]?
A: The value was 0.10 ± 0.03 % ID/g.

Q: What about the “Amount of radioactivity in organ: Heart” value [1, 2] of the same compound?
A: Its value is 7.02 ± 1.23 % ID/g.

Q: And the “Amount of radioactivity in organ: Heart” value [1, 3]?
A: Its value is 2.05 ± 0.29 % ID/g.

Q: What about the “Amount of radioactivity in organ: Heart” value [1, 4] of the same compound?
A: Its value is 1.19 ± 0.39 % ID/g.

Q: What about the “Amount of radioactivity in organ: Heart” value [1, 5] of the same compound?
A: The value was 1.44 ± 0.39 % ID/g.

Q: What about the “Amount of radioactivity in organ: Intestine” value (“Amount … Intestine” for short) [1, 2] of the same compound?
A: Its value is 1.85 ± 0.26 % ID/g.

Q: What about the “Amount … Intestine” value [1, 3] of the same compound?
A: Its value is 7.88 ± 1.46 % ID/g.

Q: What about the “Amount … Intestine” value [1, 4] of the same compound?
A: The value was 17.7 ± 2.22 % ID/g.

Q: And the “Amount … Intestine” value [1, 5]?
A: Its value is 23.4 ± 5.37 % ID/g.

Q: And the “Amount of radioactivity in organ: Kidney” value [1, 2]?
A: The value was 9.21 ± 0.68 % ID/g.

Q: And the “Amount of radioactivity in organ: Kidney” value [1, 3]?
A: Its value is 9.11 ± 1.15 % ID/g.

Q: And the “Amount of radioactivity in organ: Kidney” value [1, 4]?
A: The value was 3.86 ± 0.85 % ID/g.

Q: And the “Amount of radioactivity in organ: Kidney” value [1, 5]?
A: The value was 2.68 ± 0.75 % ID/g.

Q: And the “Amount of radioactivity in organ: Liver” value [1, 2]?
A: The value was 32.2 ± 1.67 % ID/g.

Q: And the “Amount of radioactivity in organ: Liver” value [1, 3]?
A: The value was 32.1 ± 2.09 % ID/g.

Q: What about the “Amount of radioactivity in organ: Liver” value [1, 4] of the same compound?
A: The value was 22.6 ± 3.42 % ID/g.

Q: What about the “Amount of radioactivity in organ: Liver” value [1, 5] of the same compound?
A: Its value is 20.2 ± 1.93 % ID/g.

Q: And the “Amount of radioactivity in organ: Lung” value [1, 2]?
A: Its value is 10.8 ± 1.28 % ID/g.

Q: And the “Amount of radioactivity in organ: Lung” value [1, 3]?
A: Its value is 3.89 ± 0.32 % ID/g.

Q: And the “Amount of radioactivity in organ: Lung” value [1, 4]?
A: Its value is 2.09 ± 0.43 % ID/g.

Q: What about the “Amount of radioactivity in organ: Lung” value [1, 5] of the same compound?
A: Its value is 1.70 ± 0.45 % ID/g.

Q: What about the “Amount of radioactivity in organ: Pancreas” value (shortened to “Amount … Pancreas”) [1, 2] of the same compound?
A: The value was 1.79 ± 0.27 % ID/g.

Q: What about the “Amount … Pancreas” value [1, 3] of the same compound?
A: The value was 0.98 ± 0.08 % ID/g.

Q: And the “Amount … Pancreas” value [1, 4]?
A: The value was 0.56 ± 0.10 % ID/g.

Q: What about the “Amount … Pancreas” value [1, 5] of the same compound?
A: The value was 0.45 ± 0.08 % ID/g.

Q: What about the “Amount of radioactivity in organ: Spleen” value [1, 2] of the same compound?
A: Its value is 9.16 ± 2.04 % ID/g.

Q: And the “Amount of radioactivity in organ: Spleen” value [1, 3]?
A: The value was 12.2 ± 2.28 % ID/g.

Q: What about the “Amount of radioactivity in organ: Spleen” value [1, 4] of the same compound?
A: The value was 13.6 ± 4.29 % ID/g.

Q: And the “Amount of radioactivity in organ: Spleen” value [1, 5]?
A: Its value is 10.0 ± 2.49 % ID/g.

Q: And the “Amount of radioactivity in organ: Stomach” value (shortened to “Amount … Stomach”) [1, 2]?
A: The value was 0.93 ± 0.36 % ID/g.

Q: And the “Amount … Stomach” value [1, 3]?
A: The value was 3.39 ± 3.03 % ID/g.

Q: What about the “Amount … Stomach” value [1, 4] of the same compound?
A: The value was 3.39 ± 2.98 % ID/g.

Q: What about the “Amount … Stomach” value [1, 5] of the same compound?
A: The value was 5.32 ± 2.68 % ID/g.

Q: And the “Radioactivity of eluted fraction: aggregated tau vs non aggregated tau vs buffer” value (tau protein aggregate)?
A: The value was “specifically binding to a tau protein aggregate”.

Q: What does the source list for `CCOC(=O)CN1C(=O)/C(=C/c2ccc(-c3cccc([125I])c3)o2)SC1=S` [Radioactive iodine-labeled compound 1, (Z)-Ethyl-2-(5-((5-(3-(^125I)iodophenyl)furan-2-yl)methylene)-4-oxo-2-thioxothiazolidin-3-yl) acetate]?
A: Binding to the Aβ42 aggregate (proportion of radioactivity count on the filter) (Aβ42 aggregate): significantly lower; Amount of radioactivity in organ: Blood [1, 2]: 6.70 ± 0.53 % ID/g; Amount of radioactivity in organ: Blood [1, 3]: 3.58 ± 0.37 % ID/g; Amount of radioactivity in organ: Blood [1, 4]: 2.27 ± 0.44 % ID/g; Amount of radioactivity in organ: Blood [1, 5]: 1.59 ± 0.14 % ID/g; Amount of radioactivity in organ: Brain [1, 2]: 0.23 ± 0.02 % ID/g; Amount of radioactivity in organ: Brain [1, 3]: 0.16 ± 0.01 % ID/g; Amount of radioactivity in organ: Brain [1, 4]: 0.15 ± 0.03 % ID/g; Amount of radioactivity in organ: Brain [1, 5]: 0.11 ± 0.02 % ID/g; Amount of radioactivity in organ: Heart [1, 2]: 9.41 ± 0.49 % ID/g; Amount of radioactivity in organ: Heart [1, 3]: 5.05 ± 0.39 % ID/g; Amount of radioactivity in organ: Heart [1, 4]: 2.38 ± 0.38 % ID/g; Amount of radioactivity in organ: Heart [1, 5]: 1.39 ± 0.19 % ID/g; Amount of radioactivity in organ: Intestine [1, 2]: 1.77 ± 0.33 % ID/g; Amount of radioactivity in organ: Intestine [1, 3]: 7.97 ± 1.24 % ID/g; Amount of radioactivity in organ: Intestine [1, 4]: 15.1 ± 1.82 % ID/g; Amount of radioactivity in organ: Intestine [1, 5]: 21.0 ± 2.73 % ID/g; Amount of radioactivity in organ: Kidney [1, 2]: 8.50 ± 0.83 % ID/g; Amount of radioactivity in organ: Kidney [1, 3]: 7.64 ± 0.69 % ID/g; Amount of radioactivity in organ: Kidney [1, 4]: 6.42 ± 1.17 % ID/g; Amount of radioactivity in organ: Kidney [1, 5]: 3.91 ± 0.18 % ID/g; Amount of radioactivity in organ: Liver [1, 2]: 43.1 ± 2.07 % ID/g; Amount of radioactivity in organ: Liver [1, 3]: 29.5 ± 2.17 % ID/g; Amount of radioactivity in organ: Liver [1, 4]: 14.7 ± 2.27 % ID/g; Amount of radioactivity in organ: Liver [1, 5]: 11.3 ± 0.87 % ID/g; Amount of radioactivity in organ: Lung [1, 2]: 13.6 ± 1.00 % ID/g; Amount of radioactivity in organ: Lung [1, 3]: 4.44 ± 0.52 % ID/g; Amount of radioactivity in organ: Lung [1, 4]: 2.31 ± 0.46 % ID/g; Amount of radioactivity in organ: Lung [1, 5]: 1.56 ± 0.22 % ID/g; Amount of radioactivity in organ: Pancreas [1, 2]: 1.74 ± 0.19 % ID/g; Amount of radioactivity in organ: Pancreas [1, 3]: 1.75 ± 0.18 % ID/g; Amount of radioactivity in organ: Pancreas [1, 4]: 1.16 ± 0.17 % ID/g; Amount of radioactivity in organ: Pancreas [1, 5]: 0.73 ± 0.08 % ID/g; Amount of radioactivity in organ: Spleen [1, 2]: 6.70 ± 0.54 % ID/g; Amount of radioactivity in organ: Spleen [1, 3]: 4.11 ± 0.80 % ID/g; Amount of radioactivity in organ: Spleen [1, 4]: 2.66 ± 0.84 % ID/g; Amount of radioactivity in organ: Spleen [1, 5]: 1.94 ± 0.40 % ID/g; Amount of radioactivity in organ: Stomach [1, 2]: 0.75 ± 0.17 % ID/g; Amount of radioactivity in organ: Stomach [1, 3]: 1.53 ± 0.44 % ID/g; Amount of radioactivity in organ: Stomach [1, 4]: 3.65 ± 0.78 % ID/g; Amount of radioactivity in organ: Stomach [1, 5]: 4.51 ± 0.38 % ID/g; Radioactivity of eluted fraction: aggregated tau vs non aggregated tau vs buffer (tau protein aggregate): specifically binding to a tau protein aggregate

Q: For `CN(C)c1ccc(/C=C/C(=O)c2ccc(I)cc2)cc1` [chalcone derivative, 4-dimethylamino-4′-iodochalcone, reference compound], which “Binding to the Aβ42 aggregate (proportion of radioactivity count on the filter)” value (Aβ42 aggregate) is on record?
A: Its value is “exhibited binding to the Aβ42 aggregate”.
